Measured values as given in ChEMBL document CHEMBL5728698, “Pyrrolo[1,2-b]pyridazine derivatives” (2021).

Biological target: T1, Interleukin-1 receptor-associated kinase 4 (Homo sapiens, UniProt Q9NWZ3)
T1 sequence (Q9NWZ3 whole entry): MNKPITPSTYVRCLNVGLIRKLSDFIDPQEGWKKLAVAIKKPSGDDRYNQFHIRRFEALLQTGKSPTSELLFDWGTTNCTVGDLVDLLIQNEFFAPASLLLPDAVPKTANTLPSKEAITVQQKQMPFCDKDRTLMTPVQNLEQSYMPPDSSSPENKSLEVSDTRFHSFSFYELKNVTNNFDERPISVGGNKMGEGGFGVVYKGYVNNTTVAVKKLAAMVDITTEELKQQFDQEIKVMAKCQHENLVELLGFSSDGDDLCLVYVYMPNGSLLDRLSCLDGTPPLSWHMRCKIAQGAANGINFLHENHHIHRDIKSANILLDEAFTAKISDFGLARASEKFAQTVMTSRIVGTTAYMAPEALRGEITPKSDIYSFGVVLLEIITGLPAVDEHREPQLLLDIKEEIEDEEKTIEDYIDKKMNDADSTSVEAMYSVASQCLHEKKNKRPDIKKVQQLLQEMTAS
Experiment: IRAK4 Biochemical Assay: IRAK4 enzyme (Carna Biosciences, Chuo-ku, Kobe, Japan) activity was measured by detecting phosphorylated peptide substrate formation using an antibody against the phosphorylated peptide substrate. This is a time-resolved fluorescence resonance energy transfer (TR-FRET) immunoassay, based on the STK1 KinEASE Assay (Cisbio, Bedford, Mass.). The assay was designed as a simple two-step, endpoint assay (a 5 μl enzyme reaction followed by 5 μl stop and detect Solution) performed in ProxiPlate-384 Plus plates (Perkin Elmer, Waltham, Mass.). Staurosporine, a non-selective kinase inhibitor was used as a positive control. Compounds diluted in DMSO were spotted into 384 well plates using a Labcyte® Echo 550 Liquid Handling System prior to addition of IRAK4 enzyme and peptide substrate. Reaction solutions were delivered using a Multi-Flo (Bio-Tek Instruments). The enzyme and peptide solution was incubated with compound for 15 minutes at room temp before the reaction was initiated by the addition of ATP. The standard 5 μl reaction mixture contained 500 μM ATP, 2 μM peptide (STK1 Peptide), 0.75 nM of IRAK4 in reaction buffer (50 mM HEPES, pH 7.0, 0.02% NaN3, 0.01% BSA, 0.1 mM Orthovanadate, 5 mM MgCl2, 0.025% NP-40, 1 mM DTT). […]

IC50: < 1 nM
Structure (SMILES): COC(=O)NC[C@H]1C[C@H](Nc2cc(-c3ccc4cc(C#N)cnn34)ncc2-c2cn([C@H]3CC[C@H](NC(=O)N4CCOCC4)CC3)nn2)C1
